Reference: patent US20250360235A1, “RADI[…] AND METHOD FOR RADIOLABELLING” (Telix Innovations SA, priority 2024, published 2025)

Assay: Radiochemical purity by iTLC over time after radiolabelling
Format: physicochemical
Description: Table 1 to Table 5 show the results of various radiolabelling experiments on radiochemical purity and the chelation yield. The radiolabelling experiments in the tables are carried out as described in: • Example 1 for when the gallium-68 source is GE Liquid target generator and EZAG GalliaPharm generator; • Example 2 for when the gallium-68 source is IRE Galli Eo generator; • Example 3 for when the gallium-68 source is GE solid target generator;
However, the experiments were carried out with the amount of ascorbic acid as indicated in the Tables 1 to 5, and the activity as indicated in the Tables 1 to 5. Radiochemical purities were measured at various times (T0, T1, T4, T6) after the radiolabelled experiments have been conducted.
The kits of Example 1, Example 2 or Example 3, with amounts of ascorbic acid as set out in Table 7 were used in the experiments for the ascorbic acid bracketing matrix. Three strengths of [^68Ga]Ga-PSMA-11 will be tested, i.e. 50 mCi/ml, 7 mCi/ml and 1 mCi/ml. Radiochemical purity was determined at different time points (TO, T1, T4 or T6), as set out in Table 7.

[1] = validation batches, 25 mg ascorbic acid, 51.6-62.7 mCi, 4.56-5.88 mCi/mL, IRE Galli Eo, average of 3, T0
[2] = validation batches, 25 mg ascorbic acid, 51.6-62.7 mCi, 4.56-5.88 mCi/mL, IRE Galli Eo, average of 3, T4 (4 h)
[3] = validation batches, 25 mg ascorbic acid, 51.6-62.7 mCi, 4.56-5.88 mCi/mL, IRE Galli Eo, n=3, T0
[4] = validation batches, 25 mg ascorbic acid, 51.6-62.7 mCi, 4.56-5.88 mCi/mL, IRE Galli Eo, n=3, T4 (4 h)
[5] = validation batches, 25 mg ascorbic acid, 53.3-74.4 mCi, 5.03-6.92 mCi/mL, GE Liquid target, average of 3, T0
[6] = validation batches, 25 mg ascorbic acid, 53.3-74.4 mCi, 5.03-6.92 mCi/mL, GE Liquid target, average of 3, T4 (4 h)
[7] = validation batches, 25 mg ascorbic acid, 53.3-74.4 mCi, 5.03-6.92 mCi/mL, GE Liquid target, n=3, T0
[8] = validation batches, 25 mg ascorbic acid, 53.3-74.4 mCi, 5.03-6.92 mCi/mL, GE Liquid target, n=3, T4 (4 h)
[9] = validation batches, 25 mg ascorbic acid, 65.0-66.4 mCi, 5.74-6.15 mCi/mL, EZAG GalliaPharm, average of 3, T0
[10] = validation batches, 25 mg ascorbic acid, 65.0-66.4 mCi, 5.74-6.15 mCi/mL, EZAG GalliaPharm, average of 3, T4 (4 h)
[11] = validation batches, 25 mg ascorbic acid, 65.0-66.4 mCi, 5.74-6.15 mCi/mL, EZAG GalliaPharm, n=3, T0
[12] = validation batches, 25 mg ascorbic acid, 65.0-66.4 mCi, 5.74-6.15 mCi/mL, EZAG GalliaPharm, n=3, T4 (4 h)
[13] = validation batches, 25 mg ascorbic acid, 537-551 mCi, 50.2-51.6 mCi/mL, GE Solid Target, average of 3, T0
[14] = validation batches, 25 mg ascorbic acid, 537-551 mCi, 50.2-51.6 mCi/mL, GE Solid Target, average of 3, T6 (6 h)
[15] = validation batches, 25 mg ascorbic acid, 537-551 mCi, 50.2-51.6 mCi/mL, GE Solid Target, n=3, T0
[16] = validation batches, 25 mg ascorbic acid, 537-551 mCi, 50.2-51.6 mCi/mL, GE Solid Target, n=3, T6 (6 h)
[17] = validation batches, 25 mg ascorbic acid, 555-564 mCi, 51.1-52.7 mCi/mL, ARTMS Solid Target, average of 3, T0
[18] = validation batches, 25 mg ascorbic acid, 555-564 mCi, 51.1-52.7 mCi/mL, ARTMS Solid Target, average of 3, T6 (6 h)
[19] = validation batches, 25 mg ascorbic acid, 555-564 mCi, 51.1-52.7 mCi/mL, ARTMS Solid Target, n=3, T0
[20] = validation batches, 25 mg ascorbic acid, 555-564 mCi, 51.1-52.7 mCi/mL, ARTMS Solid Target, n=3, T6 (6 h)

With O=C([O-])CN(CCN(CC(=O)[O-])Cc1cc(CCC(=O)NCCCCCC(=O)NCCCC[C@H](NC(=O)N[C@@H](CCC(=O)O)C(=O)O)C(=O)O)ccc1[O-])Cc1cc(CCC(=O)O)ccc1[O-].[68Ga+3].[OH3+] [[^68Ga]PSMA-11, gallium-68 radiolabelled Glu-urea-Lys-HBED-CC (gozetotide or PSMA-11)] the “Radiochemical Purity (iTLC) Ga-68 PSMA-11 (%)” value (bracketing ~50 mCi/mL, 31.25 mg ascorbic acid, 500-544 mCi, 48.1-51.7 mCi/mL, GE Solid Target, average of 2, T6 (6 h)) was 99%, the “Radiochemical Purity (iTLC) Free and Colloidal Ga-68 (%)” value [1] was 0% and the “Radiochemical Purity (iTLC) Ga-68 PSMA-11 (%)” value [1] was 100%. For the same compound, the “Radiochemical Purity (iTLC) Free and Colloidal Ga-68 (%)” value [2] was 1%, the “Radiochemical Purity (iTLC) Ga-68 PSMA-11 (%)” value [2] was 99% and the “Radiochemical Purity (iTLC) Free and Colloidal Ga-68 (%)” value [3] was “C (C = all results conform to specifications)”. The “Radiochemical Purity (iTLC) Ga-68 PSMA-11 (%)” value [3] was “C (C = all results conform to specifications)”, the “Radiochemical Purity (iTLC) Free and Colloidal Ga-68 (%)” value [4] was “C (C = all results conform to specifications)” and the “Radiochemical Purity (iTLC) Ga-68 PSMA-11 (%)” value [4] was “C (C = all results conform to specifications)”. For the same compound, the “Radiochemical Purity (iTLC) Free and Colloidal Ga-68 (%)” value [5] was 1%, the “Radiochemical Purity (iTLC) Ga-68 PSMA-11 (%)” value [5] was 99% and the “Radiochemical Purity (iTLC) Free and Colloidal Ga-68 (%)” value [6] was 0%. The “Radiochemical Purity (iTLC) Ga-68 PSMA-11 (%)” value [6] was 100%, the “Radiochemical Purity (iTLC) Free and Colloidal Ga-68 (%)” value [7] was “C (C = all results conform to specifications)” and the “Radiochemical Purity (iTLC) Ga-68 PSMA-11 (%)” value [7] was “C (C = all results conform to specifications)”. The “Radiochemical Purity (iTLC) Free and Colloidal Ga-68 (%)” value [8] was “C (C = all results conform to specifications)”, the “Radiochemical Purity (iTLC) Ga-68 PSMA-11 (%)” value [8] was “C (C = all results conform to specifications)” and the “Radiochemical Purity (iTLC) Free and Colloidal Ga-68 (%)” value [9] was 0%. For the same compound, the “Radiochemical Purity (iTLC) Ga-68 PSMA-11 (%)” value [9] was 100%, the “Radiochemical Purity (iTLC) Free and Colloidal Ga-68 (%)” value [10] was 2% and the “Radiochemical Purity (iTLC) Ga-68 PSMA-11 (%)” value [10] was 98%. The “Radiochemical Purity (iTLC) Free and Colloidal Ga-68 (%)” value [11] was “C (C = all results conform to specifications)”, the “Radiochemical Purity (iTLC) Ga-68 PSMA-11 (%)” value [11] was “C (C = all results conform to specifications)” and the “Radiochemical Purity (iTLC) Free and Colloidal Ga-68 (%)” value [12] was “C (C = all results conform to specifications)”. The “Radiochemical Purity (iTLC) Ga-68 PSMA-11 (%)” value [12] was “C (C = all results conform to specifications)”, the “Radiochemical Purity (iTLC) Free and Colloidal Ga-68” value [13] was 0% and the “Radiochemical Purity (iTLC) Ga-68 PSMA-11” value [13] was 100%. For the same compound, the “Radiochemical Purity (iTLC) Free and Colloidal Ga-68” value [14] was 1%, the “Radiochemical Purity (iTLC) Ga-68 PSMA-11” value [14] was 99% and the “Radiochemical Purity (iTLC) Free and Colloidal Ga-68” value [15] was “C (C = all results conform to specifications)”. The “Radiochemical Purity (iTLC) Ga-68 PSMA-11” value [15] was “C (C = all results conform to specifications)”, the “Radiochemical Purity (iTLC) Free and Colloidal Ga-68” value [16] was “C (C = all results conform to specifications)” and the “Radiochemical Purity (iTLC) Ga-68 PSMA-11” value [16] was “C (C = all results conform to specifications)”. For the same compound, the “Radiochemical Purity (iTLC) Free and Colloidal Ga-68” value [17] was 1%, the “Radiochemical Purity (iTLC) Ga-68 PSMA-11” value [17] was 99% and the “Radiochemical Purity (iTLC) Free and Colloidal Ga-68” value [18] was 0%. For the same compound, the “Radiochemical Purity (iTLC) Ga-68 PSMA-11” value [18] was 100%, the “Radiochemical Purity (iTLC) Free and Colloidal Ga-68” value [19] was “C (C = all results conform to specifications)” and the “Radiochemical Purity (iTLC) Ga-68 PSMA-11” value [19] was “C (C = all results conform to specifications)”. For the same compound, the “Radiochemical Purity (iTLC) Free and Colloidal Ga-68” value [20] was “C (C = all results conform to specifications)” and the “Radiochemical Purity (iTLC) Ga-68 PSMA-11” value [20] was “C (C = all results conform to specifications)”.
